Structures are written as SMILES. Read-outs that look alike come from different tables or passages of the source.

For test [1], the target named is T1, ETA (Homo sapiens, UniProt P25101).
T1 sequence (P25101 21-427): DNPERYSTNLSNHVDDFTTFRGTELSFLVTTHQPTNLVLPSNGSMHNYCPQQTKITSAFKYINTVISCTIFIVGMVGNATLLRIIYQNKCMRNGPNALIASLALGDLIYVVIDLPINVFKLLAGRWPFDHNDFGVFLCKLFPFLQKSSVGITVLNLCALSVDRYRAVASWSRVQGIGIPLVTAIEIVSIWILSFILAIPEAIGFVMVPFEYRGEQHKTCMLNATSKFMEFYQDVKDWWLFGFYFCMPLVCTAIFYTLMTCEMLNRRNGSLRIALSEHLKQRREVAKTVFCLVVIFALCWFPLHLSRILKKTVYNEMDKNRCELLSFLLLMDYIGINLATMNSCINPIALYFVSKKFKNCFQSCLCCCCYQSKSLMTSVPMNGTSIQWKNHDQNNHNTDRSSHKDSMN
The test can be described thus: ETA affinity reported by Riechers et al (1996). It counts as binding. The conditions noted are these: calculated from the Riechers et al (1996) data.

A further test relates to hyperglycemic rats. The conditions noted are these: type 2 diabetes model; cited from earlier work.
The test system of test [2] is rat model of insulin resistance. The following applies: rats, 5 mg/kg/day, cited from earlier work.
The target of test [3] is T1, ETA. The following applies: Lip (2001); cited from earlier work.
Test [4] relates to rats with streptozotocin-induced diabetes. The conditions noted are these: 100 mg/kg/day; cited from earlier work.
For another test, the system named is resistant hypertension. The following applies: Myogen news release Aug. 18, 2005; cited from earlier work.
For test [5], the target named is T1, ETA. Briefly: 125I-endothelin-1 receptor binding cold ligand competition, steady-state, human myocardial membranes. Details: human myocardial membranes prepared from failing and non-failing left ventricles; from tissue; host or cells: human left-ventricular myocardium (failing and non-failing), membrane preparation. The following applies: mean of 8 assays.
In another test the test system is moderate hypertension. The following applies: patients, 10 to 100 mg/day, by comparison with placebo; cited from earlier work.
Test [6] relates to streptozotocin-induced diabetes in rats. The conditions noted are these: 100 mg/kg/day; cited from earlier work.
Another test has as its system obese mice. The following applies: 50 mg/kg/day; cited from earlier work.

Turning to `COc1cc(OC)nc(OC(C(=O)O)C(OC)(c2ccccc2)c2ccccc2)n1` (racemic) [racemate, 2-(4,6-dimethoxypyrimidin-2-yloxy)-3-methoxy-3,3-diphenylpropionic acid], the “selectivity Ki(ETB)/Ki(ETA)” value at ETA [1] was “about 62”.
With `COC(c1ccccc1)(c1ccccc1)[C@H](Oc1nc(C)cc(C)n1)C(=O)O` [BSF 208075], the plasma glucose levels result with hyperglycemic rats is recorded as “reduced”.
In the case of `CCCCN(CCCC)C(=O)CN1C[C@H](c2ccc3c(c2)OCO3)[C@@H](C(=O)O)[C@@H]1c1ccc(OC)cc1` [atrasentan], in test [2] (meal tolerance test), the ΔAUC for glucose result was “significantly reduce”, the “ΔAUC for glucose-insulin index” value is recorded as “significantly reduce” and the ΔAUC for insulin result is reported as “significantly reduce”. Besides, in test [2], the “3-hour fasting glucose level” value is recorded as “not” and the “3-hour fasting insulin level” value is given as “significantly reduce”.
`COc1cc(OC)nc(O[C@H](C(=O)O)C(OC)(c2ccccc2)c2ccccc2)n1` [darusentan, (+)-(S)-2-[(4,6-dimethoxy-2-pyrimidinyl)oxy]-3-methoxy-3,3-diphenylpropionic acid]: at ETA [3], the “selectivity Ki(ETB)/Ki(ETA)” value is listed as “about 160”. Also, in test [4], the “glomerular matrix protein deposition” value is recorded as “normalized” and the serum glucose concentrations result is listed as “neither compound was found to influence”. In addition, the “results of clinical trial DAR-201” value in the test with resistant hypertension was “positive results”. At ETA [5], the “Ki(ETB)/Ki(ETA)” value was 1181±148. Also, in the test with moderate hypertension, the DBP result was “significantly reduce” and the SBP result was “significantly reduce”. Further, in [6], the plasma glucose levels result is “unaffected”; the “renal effects of streptozotocin-induced diabetes, including increased glomerular diameter and deposition of eosinophilic material within the glomeruli” value is on record as “partially or fully reversed”. In the test with obese mice, the “increase in body weight” value is on record as “completely prevented”.

(Values after patent US9592231B2, “Therapy for complications of diabetes” (AbbVie Deutschland GmbH & Co. KG, priority 2007, dated 2017).)
